{"source": "patent US10450258B2", "about": "“Substituted aromatic compounds for the treatment of pulmonary fibrosis, liver fibrosis, skin fibrosis and cardiac fibrosis” (PROMETIC PHARMA SMT LIMITED, priority 2013, dated 2019)", "key": {"[1]": {"system": "CCl4-induced liver fibrosis mouse model", "assay": "CCl4-induced liver fibrosis mouse model", "format": "in vivo, mouse (male C57BL/6)", "excerpt": "Hepatic fibrosis is an outcome of many chronic liver diseases, including hepatitis B virus, hepatitis C virus, alcoholic liver disease, non-alcoholic steatohepatitis and diverse chronic intoxication. It was thus desired to evaluate the effect of Compound I on murine CCl4-induced liver fibrosis. Intoxication with CCl4 results in hepatocyte damage, necrosis, inflammation, and fibrosis, which spreads to link the vascular structures that feed into and drain the hepatic sinusoid (the portal tract and central vein radical, respectively), and over 8-30 weeks results in the development of fibrosis to hepatocellular carcinoma. Therefore, evaluation of candidate antifibrotic drugs such as Compound I can be undertaken by treatment of the mice at appropriate time points and histologic, biochemical and cellular readouts may be used to monitor candidate drug efficacy in this model.\nCCl4 (10% in corn oil, 2 ml/kg) was intraperitoneally injected twice a week for 16 weeks in male C57BL/6. Compound I (200 mg/kg) was orally administered every day from day 1 to day 113. Mice were euthanasized and histology and liver fibrotic markers were analyzed.\nTo determine if Compound I has an effect on liver fibrosis, hydroxyproline level was used to measure the collagen content in the tissue, which is indicative of liver fibrosis.\nThe reduction of collagen level in liver tissue was also observed in histological micrographs using the Masson's Trichrome staining.\nThe Masson's trichrome stain the cytoplasm, keratin, muscle fibers and intracellular fibers in red colour; nuclei in black colour and collagen (fibrous tissue) in blue color.\nAnother experiment has been performed with Compound 1 and Compound V where CCL4 (10% in olive oil, 2 ml/kg) was intraperitoneally injected twice a week for 8 weeks in male C57BL/6. Compound 1 and compound V were orally administered (100 and 200 mg/kg) every day from day 1 to day 58. Mice were euthanasized and collagen content (marker of fibrosis) in the liver was quantified by histomorphometry using Masson's trichrome staining."}, "[2]": {"system": "TGF-β, CTGF, IL-23p19, IL-6, collagen 1, fibronectin (FN-1), collagen 3 mRNA in lung tissue", "assay": "Real-time PCR of inflammatory and fibrotic marker mRNA in lung tissue, bleomycin-induced pulmonary fibrosis mouse model", "format": "in vivo, mouse (male C57BL6)", "experimental": "Male C57BL6 mice are administered intratracheal instillation of bleomycin sulphate (0.025 U) at day 0, randomized and administered Compound I (oral administration, 100 mg/kg and 200 mg/kg) on day 7 to day 20.\nFurther analysis of the lung tissue was undertaken. CTGF, collagen 1 and IL-23p19 mRNA expression was quantified by real-time PCR.\nIt was therefore evaluated side-by-side with Compound I in the bleomycin-induced pulmonary fibrosis mouse model by the same protocol described in Example 4 above. Compound I (200 mg/kg) and pirfenidone (400 mg/kg) were orally administered either alone or in combination.\nIn order to determine the effect of Compound I on pulmonary fibrosis, further analysis of the lung tissue was undertaken. TGF-β, CTGF, IL-23 and IL-6 mRNA expression was quantified by real-time PCR. […] Oral administration of pirfenidone had no effect on CTGF mRNA expression but decreased TGF-β, IL-23 and IL-6 mRNA expression. […]"}, "[3]": {"system": "α-SMA mRNA in NRK-49F cells", "assay": "Inhibition of α-SMA mRNA in TGF-β-activated NRK-49F fibroblasts", "format": "cell-based, rat", "details": "Rattus norvegicus, NRK-49F, compound 0.5 mM", "experimental": "(§1) CTGF, collagen 1 and α-SMA are fibrotic markers produced by activated fibroblasts and by epithelial cells that undergo to epithelial-mesenchymal transition (EMT).\n(§2) Table 2: Percentage of inhibition of collagen in epithelial cells (HK2 cells) and fibroblasts (NHDF) and percentage of inhibition of α-SMA in fibroblasts (NRK-49F and NHDF) has been determined for several compounds according the invention. In all cases, the mRNA of collagen and α-SMA has been measured, and the inhibition was evaluated in presence of a respective concentration of the tested compound. The compounds have been tested at different concentrations [mM]. All compounds reduce the expression of collagen and α-SMA in HK-2, NHDF and NRK-49F cells."}, "[4]": {"system": "collagen 1 mRNA in NHDF cells", "assay": "Inhibition of collagen mRNA in TGF-β-activated NHDF fibroblasts", "format": "cell-based", "details": "Homo sapiens, compound 0.5 mM", "experimental": "as §1, §2"}, "[5]": {"system": "collagen 1 mRNA in HK-2 cells (epithelial cells)", "assay": "Inhibition of collagen mRNA in TGF-β-treated HK-2 epithelial cells", "format": "cell-based", "details": "Homo sapiens, HK-2, compound 0.5 mM", "experimental": "as §1, §2"}}, "data": [{"smiles": "CCCCCc1cccc(CC(=O)[O-])c1.[Na+]", "note": "[Compound I, Sodium Salt of 3-pentylphenylacetic acid]", "values": [{"measurement": "collagen score in liver (Masson's Trichrome staining)", "setting": "[1]; CCl4 16 weeks, oral 200 mg/kg daily, FIG. 20", "result": "significant reduction"}, {"measurement": "collagen deposition and bridging formation in liver (photomicrographs)", "setting": "[1]; CCl4 16 weeks, oral 200 mg/kg daily, FIG. 21", "result": "significant reduction of collagen deposition and bridging formation"}, {"measurement": "collagen content in liver (histomorphometry, Masson's trichrome)", "setting": "[1]; CCl4 twice a week for 8 weeks, oral 100 and 200 mg/kg every day, day 1 to day 58, FIG. 22", "result": "significant reduction"}, {"measurement": "hydroxyproline level in liver", "setting": "[1]; CCl4 twice a week for 16 weeks, oral 200 mg/kg every day, day 1 to day 113, FIG. 19", "result": "significant reduction"}, {"measurement": "CTGF mRNA expression in lungs", "setting": "[2]; oral 100 and 200 mg/kg, Example 21, FIG. 4", "result": "significantly decreased the expression"}, {"measurement": "IL-23p19 mRNA expression in lungs", "setting": "[2]; oral 100 and 200 mg/kg, Example 21, FIG. 5", "result": "significantly decreased the expression"}, {"measurement": "collagen 1 mRNA expression in lungs", "setting": "[2]; oral 100 and 200 mg/kg, Example 21, FIG. 6", "result": "significantly decreased the expression"}, {"measurement": "TGF-β mRNA expression in lungs", "setting": "[2]; oral, Compound I 200 mg/kg, pirfenidone 400 mg/kg, alone or combined, FIG. 12", "result": "significantly decreased the expression"}, {"measurement": "CTGF mRNA expression in lungs", "setting": "[2]; oral, Compound I 200 mg/kg, pirfenidone 400 mg/kg, alone or combined, FIG. 13", "result": "significantly decreased the expression"}, {"measurement": "IL-23 mRNA expression in lungs", "setting": "[2]; oral, Compound I 200 mg/kg, pirfenidone 400 mg/kg, alone or combined, FIG. 14", "result": "significantly decreased the expression"}, {"measurement": "IL-6 mRNA expression in lungs", "setting": "[2]; oral, Compound I 200 mg/kg, pirfenidone 400 mg/kg, alone or combined, FIG. 15", "result": "significantly decreased the expression"}, {"measurement": "collagen 3 mRNA expression in lungs", "setting": "[2]; oral, Compound I 200 mg/kg, pirfenidone 400 mg/kg, alone or combined, FIG. 18", "result": "weak reduction"}, {"measurement": "collagen 1 mRNA expression in lungs", "setting": "[2]; oral, Compound I 200 mg/kg, pirfenidone 400 mg/kg, alone or combined, reduction to the control level, FIG. 16", "result": "significant reduction"}, {"measurement": "fibronectin (FN-1) mRNA expression in lungs", "setting": "[2]; oral, Compound I 200 mg/kg, pirfenidone 400 mg/kg, alone or combined, reduction to the control level, FIG. 17", "result": "significant reduction"}, {"measurement": "inhibition at 500 µM", "setting": "[3]", "result": 85, "unit": "%"}, {"measurement": "inhibition at 500 µM", "setting": "[4]", "result": 65, "unit": "%"}, {"measurement": "inhibition at 500 µM", "setting": "[5]", "result": 86, "unit": "%"}]}]}
